These results are taken from US20250313575A1, “MACROCYCLES AS LRRK2 INHIBITORS, PHARMACEUTICAL COMPOSITIONS, AND USES THEREOF” (Merck Sharp & Dohme LLC, priority 2022, published 2025).

A value given as a limit tells only on which side of the number the result lay.

The target of the assay is GST-tagged truncated human mutant G2019S LRRK2 (Homo sapiens (Human), UniProt Q5S007, G2019S). The assay is described as follows: LRRK2 G2019S Km ATP LanthaScreen assay. The conditions noted are these: G2019S LRRK2, 134 μM ATP (Km ATP), LRRKtide substrate. In kind it is biochemical. Summed up: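 Ten-point compound series (highest 9.99 μM in DMSO) preincubated 15 min with 1.25 nM GST-tagged truncated human LRRK2 G2019S, then 90 min reaction at ambient temperature with 134 μM ATP (Km) and fluorescein-labelled LRRKtide, pH 8.5. Phosphorylation read as 520/495 nm emission ratio via Tb-labelled antibody; IC50 from 4P logistic regression.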
Sequence of GST-tagged truncated human mutant G2019S LRRK2 (Q5S007 970-2527 G2019S): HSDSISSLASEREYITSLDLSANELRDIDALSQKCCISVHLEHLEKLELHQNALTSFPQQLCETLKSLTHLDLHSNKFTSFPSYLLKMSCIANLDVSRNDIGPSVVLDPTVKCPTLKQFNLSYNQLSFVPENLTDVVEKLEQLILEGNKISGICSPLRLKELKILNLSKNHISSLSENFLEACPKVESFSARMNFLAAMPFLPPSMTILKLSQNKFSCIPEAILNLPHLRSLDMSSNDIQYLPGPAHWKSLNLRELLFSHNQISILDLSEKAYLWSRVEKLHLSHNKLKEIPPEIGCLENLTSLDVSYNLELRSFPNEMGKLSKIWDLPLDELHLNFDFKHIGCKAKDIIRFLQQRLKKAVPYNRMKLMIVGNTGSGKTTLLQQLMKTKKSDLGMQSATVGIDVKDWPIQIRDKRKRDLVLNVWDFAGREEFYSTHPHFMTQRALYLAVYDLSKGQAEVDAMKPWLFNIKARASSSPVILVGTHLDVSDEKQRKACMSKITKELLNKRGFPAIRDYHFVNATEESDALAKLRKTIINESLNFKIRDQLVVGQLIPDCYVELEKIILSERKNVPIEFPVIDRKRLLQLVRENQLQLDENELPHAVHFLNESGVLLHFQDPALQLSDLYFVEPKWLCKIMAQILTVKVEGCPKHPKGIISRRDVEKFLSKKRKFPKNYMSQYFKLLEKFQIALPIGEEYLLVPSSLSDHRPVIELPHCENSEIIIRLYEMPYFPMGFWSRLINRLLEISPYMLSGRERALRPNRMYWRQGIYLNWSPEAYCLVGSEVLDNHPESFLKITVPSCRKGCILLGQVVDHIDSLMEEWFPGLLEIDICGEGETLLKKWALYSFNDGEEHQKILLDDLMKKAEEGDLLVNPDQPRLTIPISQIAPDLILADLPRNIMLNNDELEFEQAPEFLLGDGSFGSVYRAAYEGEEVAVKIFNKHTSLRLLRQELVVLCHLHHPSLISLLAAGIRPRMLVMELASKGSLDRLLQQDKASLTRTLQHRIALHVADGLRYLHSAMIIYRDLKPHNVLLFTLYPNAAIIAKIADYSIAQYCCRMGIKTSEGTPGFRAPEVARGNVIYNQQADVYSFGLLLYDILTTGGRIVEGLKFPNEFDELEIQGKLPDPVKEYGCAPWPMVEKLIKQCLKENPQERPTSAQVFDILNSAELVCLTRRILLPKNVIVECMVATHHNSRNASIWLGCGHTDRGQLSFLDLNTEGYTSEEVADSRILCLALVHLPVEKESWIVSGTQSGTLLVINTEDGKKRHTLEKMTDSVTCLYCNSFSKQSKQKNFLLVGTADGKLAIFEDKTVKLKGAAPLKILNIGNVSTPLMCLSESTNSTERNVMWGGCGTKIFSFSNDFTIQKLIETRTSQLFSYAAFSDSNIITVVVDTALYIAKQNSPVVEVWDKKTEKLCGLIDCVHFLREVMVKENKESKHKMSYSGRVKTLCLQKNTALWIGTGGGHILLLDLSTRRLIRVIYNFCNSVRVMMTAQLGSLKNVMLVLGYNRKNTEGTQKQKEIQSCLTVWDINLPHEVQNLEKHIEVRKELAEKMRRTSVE
Background: In TR-FRET formats the signal depends on donor and acceptor labels being close together.
As for `Cn1cc(C2CC2c2nn(C3CCC3)c3c2OC[C@@H]2COC[C@H]2Nc2nc(ncc2C(F)(F)F)N3)cn1` (stereo partly drawn) [Ex-2.69, (10aS,13aS)-3-cyclobutyl-1-((1S,2S)- or (10aS,13aS)-3-cyclobutyl-1-((1R,2R)-2-(1-methyl-1H-pyrazol-4-yl)cyclopropyl)-8-(trifluoromethyl)-3,4,10a,11,13a,14-hexahydro-10H,13H-5,9-(azeno)furo[3,4-k]pyrazolo[4,3-b][1]oxa[4,6,10]triazacyclotridecine], the “LRRK2 pIC50” value is recorded as over 10.09. In the case of `Cn1cc(C2CC2c2nn(C3CCC3)c3c2OC[C@@H]2COC[C@H]2Nc2nc(ncc2C(F)(F)F)N3)cn1` (stereo partly drawn) [Ex-2.70, (10aS,13aS)-3-cyclobutyl-1-((1S,2S)- or (10aS,13aS)-3-cyclobutyl-1-((IR,2R)-2-(1-methyl-1H-pyrazol-4-yl)cyclopropyl)-8-(trifluoromethyl)-3,4,10a,11,13a,14-hexahydro-10H,13H-5,9-(azeno)furo[3,4-k]pyrazolo[4,3-b][1]oxa[4,6,10]triazacyclotridecine] it was 9.35.

`FC(F)(F)c1cnc2nc1NC1CCC1COc1c(C3COC3)nn(C3CCC3)c1N2` [Ex-2.71, (10aR,12aR)- or (10aS,12aS)-3-cyclobutyl-1-(oxetan-3-yl)-8-(trifluoromethyl)-3,4,10,10a,11,12,12a,13-octahydro-5,9-(azeno)cyclobuta[k]pyrazolo[4,3-b][1]oxa[4,6,10]triazacyclotridecine]: the “LRRK2 pIC50” value came out at 8.24. Consider `FC(F)(F)c1cnc2nc1NC1CCC1COc1c(C3COC3)nn(C3CCC3)c1N2` [Ex-2.72, (10aR,12aR)- or (10aS,12aS)-3-cyclobutyl-1-(oxetan-3-yl)-8-(trifluoromethyl)-3,4,10,10a,11,12,12a,13-octahydro-5,9-(azeno)cyclobuta[k]pyrazolo[4,3-b][1]oxa[4,6,10]triazacyclotridecine], for which the “LRRK2 pIC50” value is over 10.09.

Consider `Cc1nn(C2CCOC2)c2c1OC[C@@H]1CC[C@H]1Nc1nc(ncc1C(F)(F)F)N2` (stereo partly drawn) [Ex-2.74, (10aR,12aR)-1-methyl-3-((S)- or (10aR,12aR)-1-methyl-3-((R)-tetrahydrofuran-3-yl)-8-(trifluoromethyl)-3,4,10,10a,11,12,12a,13-octahydro-5,9-(azeno)cyclobuta[k]pyrazolo[4,3-b][1]oxa[4,6,10]triazacyclotridecine], for which the “LRRK2 pIC50” value is on record as over 10.09. In the case of `Cn1nc(C(F)(F)F)c2c1Nc1ncc(Cl)c(n1)N[C@@H]1COC[C@H]1CO2` [Ex-2.75, (10aS,13aS)-8-chloro-3-methyl-1-(trifluoromethyl)-3,4,10a,11,13a,14-hexahydro-10H,13H-5,9-(azeno)furo[3,4-k]pyrazolo[4,3-b][1]oxa[4,6,10]triazacyclotridecine] it was 9.50; in that of `COC1CC(n2nc(C)c3c2Nc2ncc(Cl)c(n2)N[C@@H]2CC[C@H]2CO3)C1` (stereo partly drawn) [Ex-2.77, (10aR,12aR)-8-chloro-3-(3-methoxycyclobutyl)-1-methyl-3,4,10,10a,11,12,12a,13-octahydro-5,9-(azeno)cyclobuta[k]pyrazolo[4,3-b][1]oxa[4,6,10]triazacyclotridecine], over 10.09.

As to `COC1CC(n2nc(C)c3c2Nc2ncc(C(F)(F)F)c(n2)N[C@@H]2CC[C@H]2CO3)C1` (stereo partly drawn) [Ex-2.78, (10aR,12aR)-3-(3-methoxycyclobutyl)-1-methyl-8-(trifluoromethyl)-3,4,10,10a,11,12,12a,13-octahydro-5,9-(azeno)cyclobuta[k]pyrazolo[4,3-b][1]oxa[4,6,10]triazacyclotridecine], the “LRRK2 pIC50” value is listed as over 10.09.
